# In PMC8621570, “Mechanistic Studies of Antibiotic Adjuvants Reducing Kidney’s Bacterial Loads upon Systemic Monotherapy” (Pharmaceutics, 2021):
# Where a SMILES comes first, the peptide text is derived from it. [ ]: non-standard residue; d: D form. 12Ado = NCCCCCCCCCCCC(=O)O; Orn = NCCC[C@H](N)C(=O)O
# Tested on: not listed separately
# Experiment: Hydrophobicity by reversed phase HPLC elution
# Type: physicochemical
# Conditions: % acetonitrile required for elution in reversed phase HPLC, C18 column; rounded to nearest whole number
row,Compound,"H, hydrophobicity [%]"
1,CCCCC=CCCCCCCCC(=O)N[C@@H](CCCN)C(=O)N[C@@H](CCCN)C(=O)NCCCCCC(=O)N[C@@H](CCCN)C(N)=O [C14(ω5)OOc6O],47
2,CCCCC=CCCCCCCCC(=O)N[C@@H](CCCN)C(=O)N[C@@H](CCCN)C(=O)NCCCCCCCC(=O)N[C@@H](CCCN)C(N)=O [C14(ω5)OOc8O],48
3,CCCCCCCCCCCCCC(=O)N[C@@H](CCCN)C(=O)N[C@@H](CCCN)C(=O)NCCCCCCCCCC(=O)N[C@@H](CCCN)C(N)=O [C14OOc10O],53
4,NCCC[C@H](NC(=O)CCCCCCCCCCCNC(=O)[C@H](CCCN)NC(=O)[C@@H](N)CCCN)C(N)=O [OOc12O] (H-[Orn][Orn][12Ado][Orn]-NH2),24

# Tested on: not listed separately
# Experiment: Peptide self-assembly (critical aggregation concentration) by static light scattering
# Type: physicochemical
# Conditions: light scattering in PBS
# Protocol: (§1) Peptide self-assembly was determined by static light scattering measurements as described. Hemolysis was determined by measuring hemoglobin leakage from washed human RBCs, as described. Minimal inhibitory concentration (MIC) was determined using the microdilution assay, as described. Bactericidal kinetics were determined by mixing bacteria with rifampin, OAC, or their combinations, as described. Data were obtained from three independent assays performed in duplicate.
row,Compound,"CAC, critical aggregation concentration [µM]"
1,CCCCC=CCCCCCCCC(=O)N[C@@H](CCCN)C(=O)N[C@@H](CCCN)C(=O)NCCCCCC(=O)N[C@@H](CCCN)C(N)=O [C14(ω5)OOc6O],>100
2,CCCCC=CCCCCCCCC(=O)N[C@@H](CCCN)C(=O)N[C@@H](CCCN)C(=O)NCCCCCCCC(=O)N[C@@H](CCCN)C(N)=O [C14(ω5)OOc8O],>100
3,CCCCCCCCCCCCCC(=O)N[C@@H](CCCN)C(=O)N[C@@H](CCCN)C(=O)NCCCCCCCCCC(=O)N[C@@H](CCCN)C(N)=O [C14OOc10O],45 ± 14
4,NCCC[C@H](NC(=O)CCCCCCCCCCCNC(=O)[C@H](CCCN)NC(=O)[C@@H](N)CCCN)C(N)=O [OOc12O] (H-[Orn][Orn][12Ado][Orn]-NH2),>100

# Tested on: washed human erythrocytes
# Experiment: not given
# Type: cell-based
# Conditions: red cells of human, 3 h
# Protocol: as §1
row,Compound,"HC50, concentration causing 50% hemolysis compared to water [µM]"
1,CCCCC=CCCCCCCCC(=O)N[C@@H](CCCN)C(=O)N[C@@H](CCCN)C(=O)NCCCCCC(=O)N[C@@H](CCCN)C(N)=O [C14(ω5)OOc6O],>100
2,CCCCC=CCCCCCCCC(=O)N[C@@H](CCCN)C(=O)N[C@@H](CCCN)C(=O)NCCCCCCCC(=O)N[C@@H](CCCN)C(N)=O [C14(ω5)OOc8O],>100
3,CCCCCCCCCCCCCC(=O)N[C@@H](CCCN)C(=O)N[C@@H](CCCN)C(=O)NCCCCCCCCCC(=O)N[C@@H](CCCN)C(N)=O [C14OOc10O],28 ± 2
4,NCCC[C@H](NC(=O)CCCCCCCCCCCNC(=O)[C@H](CCCN)NC(=O)[C@@H](N)CCCN)C(N)=O [OOc12O] (H-[Orn][Orn][12Ado][Orn]-NH2),>100

# Tested on: 12 GNB strains
# Experiment: not given
# Type: cell-based
# Conditions: OD measurements, mean of 12 GNB strains
# Protocol: Bacteria:Escherichia coli strains: 25922 and 35218 (ATCC, Manassas, VA, USA), 14182 (clinical isolate), Ag100 and Ag100A [34] (ΔacrAB) are two K-12 isogenic mutantsand the engineered mutant ML-35p. Additional ESKAPE species tested: Klebsiella pneumoniae strains 1287 and 224 (clinical isolates), Acinetobacter baumannii ATCC strain 19606, Pseudomonas aeruginosa ATCC strains 9027 and 27853. Bacteria were grown in Luria–Bertani (LB) broth (0.5% NaCl, 0.5% yeast extract, 1% tryptone, pH = 7), except for E. coli ML-35p that was grown in tryptic-soy broth.
# as §1
row,Compound,"MIC, LB medium [µM]"
1,CCCCC=CCCCCCCCC(=O)N[C@@H](CCCN)C(=O)N[C@@H](CCCN)C(=O)NCCCCCC(=O)N[C@@H](CCCN)C(N)=O [C14(ω5)OOc6O],>50
2,CCCCC=CCCCCCCCC(=O)N[C@@H](CCCN)C(=O)N[C@@H](CCCN)C(=O)NCCCCCCCC(=O)N[C@@H](CCCN)C(N)=O [C14(ω5)OOc8O],>50
3,CCCCCCCCCCCCCC(=O)N[C@@H](CCCN)C(=O)N[C@@H](CCCN)C(=O)NCCCCCCCCCC(=O)N[C@@H](CCCN)C(N)=O [C14OOc10O],12.5 to 25
4,NCCC[C@H](NC(=O)CCCCCCCCCCCNC(=O)[C@H](CCCN)NC(=O)[C@@H](N)CCCN)C(N)=O [OOc12O] (H-[Orn][Orn][12Ado][Orn]-NH2),>50

# Tested on: E. coli 25922
# Experiment: not given
# Type: cell-based, Escherichia coli
# Conditions: 25922, 24 h
# Protocol: Sensitization to plasma components was assessed by mixing bacteria with serial two-fold OAC dilutions in 80% human plasma (Israel Blood Bank) or plasma from the specified species (Technion preclinical research authority or VetSource), as described. Data were obtained from three independent experiments.
# Figure 3 Animal plasma antibacterial activities against E. coli 25922. (a) Dose-dependent reduction of colony forming units (CFU) as determined 24 h after exposure to C14(ω5)OOc10O in human plasma (80% final plasma concentration in PBS). Values represent the mean ± SD obtained from three individual plasma donors (mean inoculum was 1.6 ± 0.8 × 10^6 CFU/mL). (b) Time-kill kinetics determined upon E. coli exposure to 0, 2.5, 5, and 10 µM C14(ω5)OOc10O (from top to bottom, respectively). Values represent the mean ± SD obtained from two individual plasma samples, each subjected to two independent assays. Panels (c–f), respectively, show the OAC’s concentration-dependent activities in plasma samples obtained from pig, cat, sheep, and dog. The three dashed horizontal lines respectively represent the average CFU count of the vehicle control (upper line), the inoculum (middle line), and the limit of detection (lower line), i.e., log10 50 CFU/mL = 1.69. Green stars (*) denote lack of detectable CFU.
row,Compound,"MIC, human plasma [µM]"
1,CCCCC=CCCCCCCCC(=O)N[C@@H](CCCN)C(=O)N[C@@H](CCCN)C(=O)NCCCCCC(=O)N[C@@H](CCCN)C(N)=O [C14(ω5)OOc6O],5
2,CCCCC=CCCCCCCCC(=O)N[C@@H](CCCN)C(=O)N[C@@H](CCCN)C(=O)NCCCCCCCC(=O)N[C@@H](CCCN)C(N)=O [C14(ω5)OOc8O],2.5 to 5
3,CCCCCCCCCCCCCC(=O)N[C@@H](CCCN)C(=O)N[C@@H](CCCN)C(=O)NCCCCCCCCCC(=O)N[C@@H](CCCN)C(N)=O [C14OOc10O],10 to 20
4,NCCC[C@H](NC(=O)CCCCCCCCCCCNC(=O)[C@H](CCCN)NC(=O)[C@@H](N)CCCN)C(N)=O [OOc12O] (H-[Orn][Orn][12Ado][Orn]-NH2),>20
